Assay results as given in ChEMBL document CHEMBL5131542, “Exploring Degradation of Mutant and Wild-Type Epidermal Growth Factor Receptors Induced by Proteolysis-Targeting Chimeras” (J Med Chem, 2022).
The source made the active and inactive calls. The calls are words filed in the database; no cut-off is given here.

Tests used:
HCC827 = test: Antiproliferative activity against human HCC827 cells assessed as cell growth inhibition incubated for 3 days by CCK-8 assay; assay type: functional; details: HCC827, 72 h, time 3 day
OVCAR-8 = test: Antiproliferative activity against human OVCAR-8 cells expressing wild type EGFR assessed as cell growth inhibition at 1 uM in presence of pictilisib; assay type: functional, cell-based
NCI-H1299 = test: Antiproliferative activity against human NCI-H1299 cells expressing wild type EGFR assessed as cell growth inhibition at 1 uM in presence of pictilisib; assay type: functional, cell-based
[1] = system: von Hippel-Lindau disease tumor suppressor/Epidermal growth factor receptor (Homo sapiens), P00533+P40337 [UNDEFINED MUTATION]; test: PROTAC activity at VHL/EGFR Del19 mutant in human HCC827 cells assessed as EGFR degradation treated after 8 hrs under serum starvation condition at 10 to 1000 nM measured after 16 hrs by Western blotting analysis; assay type: cell-based; details: dose 10-1000 nM
Chain of von Hippel-Lindau disease tumor suppressor/Epidermal growth factor receptor (Homo sapiens), P00533+P40337 [UNDEFINED MUTATION] (P00533 whole entry, looked up, stated change not applied): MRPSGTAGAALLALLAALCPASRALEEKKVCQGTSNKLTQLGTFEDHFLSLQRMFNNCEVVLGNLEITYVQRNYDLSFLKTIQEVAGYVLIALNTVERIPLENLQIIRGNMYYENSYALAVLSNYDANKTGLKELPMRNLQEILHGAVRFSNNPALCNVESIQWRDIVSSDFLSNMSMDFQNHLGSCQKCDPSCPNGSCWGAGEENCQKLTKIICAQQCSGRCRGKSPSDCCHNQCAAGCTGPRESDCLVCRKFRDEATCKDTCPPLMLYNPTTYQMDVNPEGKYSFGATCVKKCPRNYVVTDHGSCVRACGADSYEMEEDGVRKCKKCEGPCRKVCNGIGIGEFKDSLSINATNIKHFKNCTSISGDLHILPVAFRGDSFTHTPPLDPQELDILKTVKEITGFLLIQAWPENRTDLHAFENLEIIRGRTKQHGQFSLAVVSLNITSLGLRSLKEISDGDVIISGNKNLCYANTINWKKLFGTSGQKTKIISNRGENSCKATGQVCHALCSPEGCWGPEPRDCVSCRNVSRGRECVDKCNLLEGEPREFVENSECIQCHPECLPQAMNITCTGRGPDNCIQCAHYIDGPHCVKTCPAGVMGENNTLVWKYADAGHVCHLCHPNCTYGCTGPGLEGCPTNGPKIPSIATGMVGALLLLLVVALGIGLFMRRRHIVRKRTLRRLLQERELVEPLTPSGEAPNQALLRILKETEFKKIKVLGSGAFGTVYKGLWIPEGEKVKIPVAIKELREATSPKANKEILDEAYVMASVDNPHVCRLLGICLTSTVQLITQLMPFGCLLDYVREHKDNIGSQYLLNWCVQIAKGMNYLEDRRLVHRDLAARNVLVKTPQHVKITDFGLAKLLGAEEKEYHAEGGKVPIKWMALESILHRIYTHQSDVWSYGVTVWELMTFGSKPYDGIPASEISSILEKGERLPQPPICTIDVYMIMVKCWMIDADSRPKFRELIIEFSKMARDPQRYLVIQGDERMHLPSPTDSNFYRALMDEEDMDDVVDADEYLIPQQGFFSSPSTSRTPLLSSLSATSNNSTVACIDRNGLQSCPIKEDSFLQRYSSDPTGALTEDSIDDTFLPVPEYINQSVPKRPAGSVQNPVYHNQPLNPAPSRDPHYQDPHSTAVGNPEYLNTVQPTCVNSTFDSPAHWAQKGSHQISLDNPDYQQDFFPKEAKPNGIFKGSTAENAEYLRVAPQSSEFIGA
Chain of von Hippel-Lindau disease tumor suppressor/Epidermal growth factor receptor (Homo sapiens), P00533+P40337 [UNDEFINED MUTATION] (P40337 whole entry, looked up, stated change not applied): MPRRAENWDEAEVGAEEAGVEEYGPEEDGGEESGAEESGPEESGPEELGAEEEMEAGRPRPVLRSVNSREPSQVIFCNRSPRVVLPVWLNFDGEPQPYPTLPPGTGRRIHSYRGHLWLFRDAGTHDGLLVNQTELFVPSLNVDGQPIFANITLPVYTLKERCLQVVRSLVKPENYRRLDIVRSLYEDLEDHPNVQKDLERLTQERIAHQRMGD

[2] = system: Protein cereblon/Epidermal growth factor receptor (Homo sapiens), P00533+Q96SW2 [UNDEFINED MUTATION]; test: PROTAC activity at CRBN/EGFR Del19 mutant in human HCC827 cells assessed as EGFR degradation treated after 8 hrs under serum starvation condition at 100 nM measured after 16 hrs by Western blotting analysis; assay type: cell-based
Chain of Protein cereblon/Epidermal growth factor receptor (Homo sapiens), P00533+Q96SW2 [UNDEFINED MUTATION] (P00533 whole entry, looked up, stated change not applied): as the sequence (P00533 whole entry, looked up, stated change not applied) above
Chain of Protein cereblon/Epidermal growth factor receptor (Homo sapiens), P00533+Q96SW2 [UNDEFINED MUTATION] (Q96SW2 whole entry, looked up, stated change not applied): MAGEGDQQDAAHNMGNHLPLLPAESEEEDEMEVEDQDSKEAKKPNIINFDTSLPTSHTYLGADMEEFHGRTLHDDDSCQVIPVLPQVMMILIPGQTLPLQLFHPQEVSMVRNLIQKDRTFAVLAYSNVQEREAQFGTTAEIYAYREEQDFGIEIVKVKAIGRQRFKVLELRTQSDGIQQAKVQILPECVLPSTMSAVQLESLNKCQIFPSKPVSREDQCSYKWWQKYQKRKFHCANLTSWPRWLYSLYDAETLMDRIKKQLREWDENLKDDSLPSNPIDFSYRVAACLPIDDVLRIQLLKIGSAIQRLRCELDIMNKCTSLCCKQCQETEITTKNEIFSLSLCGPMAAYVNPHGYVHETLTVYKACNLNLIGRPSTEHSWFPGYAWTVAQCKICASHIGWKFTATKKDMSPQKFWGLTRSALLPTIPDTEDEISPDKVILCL

[3] = system: Protein cereblon/Epidermal growth factor receptor (Homo sapiens), P00533+Q96SW2 [UNDEFINED MUTATION]; test: PROTAC activity at CRBN/EGFR Del19 mutant in human HCC827 cells assessed as EGFR degradation treated after 8 hrs under serum starvation condition at 1 uM measured after 16 hrs by Western blotting analysis; assay type: cell-based
[4] = target: T1, von Hippel-Lindau disease tumor suppressor/Epidermal growth factor receptor (Homo sapiens, UniProt P00533+P40337); test: PROTAC activity at VHL/EGFR Del19 mutant in human HCC827 cells; assay type: cell-based
[5] = target: Epidermal growth factor receptor (Homo sapiens, UniProt P00533); test: Binding affinity to human wild type partial length EGFR (R669 to V1011 residues) expressed in bacterial expression system assessed as immobilized ligand binding by competitive binding assay
[6] = target: Epidermal growth factor receptor (Homo sapiens, UniProt P00533, L858R); test: Binding affinity to human partial length EGFR (R669 to V1011 residues) L858R mutant expressed in bacterial expression system assessed as immobilized ligand binding by competitive binding assay
Chain of Epidermal growth factor receptor (Homo sapiens, UniProt P00533, L858R) (P00533 25-1210 L858R limits assumed): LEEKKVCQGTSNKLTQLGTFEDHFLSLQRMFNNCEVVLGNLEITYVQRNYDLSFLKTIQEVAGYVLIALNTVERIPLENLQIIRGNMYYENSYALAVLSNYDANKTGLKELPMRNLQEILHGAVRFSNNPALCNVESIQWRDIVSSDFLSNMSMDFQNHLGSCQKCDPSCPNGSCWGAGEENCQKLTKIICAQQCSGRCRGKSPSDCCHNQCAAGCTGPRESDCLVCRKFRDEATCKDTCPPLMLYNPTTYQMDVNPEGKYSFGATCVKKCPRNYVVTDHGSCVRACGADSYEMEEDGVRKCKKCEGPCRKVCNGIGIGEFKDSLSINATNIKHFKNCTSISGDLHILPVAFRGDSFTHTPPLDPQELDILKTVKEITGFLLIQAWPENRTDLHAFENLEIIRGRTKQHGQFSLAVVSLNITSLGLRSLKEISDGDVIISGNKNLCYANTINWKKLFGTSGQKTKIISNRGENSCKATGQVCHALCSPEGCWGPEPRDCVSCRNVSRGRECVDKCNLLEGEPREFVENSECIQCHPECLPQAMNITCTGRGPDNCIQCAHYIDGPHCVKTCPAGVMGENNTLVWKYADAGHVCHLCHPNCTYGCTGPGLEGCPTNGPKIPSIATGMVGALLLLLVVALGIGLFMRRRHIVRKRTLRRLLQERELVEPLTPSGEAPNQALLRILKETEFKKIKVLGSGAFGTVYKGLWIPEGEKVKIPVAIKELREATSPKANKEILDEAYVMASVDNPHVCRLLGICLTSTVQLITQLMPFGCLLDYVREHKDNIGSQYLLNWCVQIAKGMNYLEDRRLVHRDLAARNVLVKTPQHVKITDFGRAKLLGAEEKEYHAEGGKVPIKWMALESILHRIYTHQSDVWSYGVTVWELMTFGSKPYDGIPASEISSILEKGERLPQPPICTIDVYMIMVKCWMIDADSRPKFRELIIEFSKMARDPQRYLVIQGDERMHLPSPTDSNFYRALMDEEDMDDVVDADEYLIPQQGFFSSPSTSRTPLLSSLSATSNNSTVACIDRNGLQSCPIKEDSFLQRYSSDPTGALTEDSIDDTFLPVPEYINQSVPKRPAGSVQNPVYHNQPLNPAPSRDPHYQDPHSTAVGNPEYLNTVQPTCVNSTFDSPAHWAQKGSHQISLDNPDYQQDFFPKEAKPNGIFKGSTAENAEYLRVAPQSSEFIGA

[7] = target: T1, von Hippel-Lindau disease tumor suppressor/Epidermal growth factor receptor; test: PROTAC activity at VHL/wild type EGFR in human OVCAR-8 cells assessed as EGFR degradation measured after 24 hrs by Immunoblotting analysis; assay type: cell-based

SMILES	GI50 (HCC827) [nM]	Activity [1]	also measured
COc1cc2ncnc(Nc3ccc(F)c(Cl)c3)c2cc1OCCCN1CCN(C(=O)C[C@H](NC(=O)[C@@H]2C[C@@H](O)CN2C(=O)[C@@H](c2cc(C)no2)C(C)C)c2ccc(-c3scnc3C)cc2)CC1	730	–	–
COc1cc2ncnc(Nc3ccc(F)c(Cl)c3)c2cc1OCCCN1CCN(CCC(=O)NCCCCCCCCOc2cccc3c2C(=O)N(C2CCC(=O)NC2=O)C3)CC1 (stereo unspecified)	660	–	Activity (OVCAR-8): Active; Activity (NCI-H1299): Active
COc1cc2ncnc(Nc3ccc(F)c(Cl)c3)c2cc1OCCCN1CCN(C(=O)CCCNC(=O)C[C@H](NC(=O)[C@@H]2C[C@@H](O)CN2C(=O)[C@@H](c2cc(C)no2)C(C)C)c2ccc(-c3scnc3C)cc2)CC1	880	Active	–
COc1cc2ncnc(Nc3ccc(F)c(Cl)c3)c2cc1OCCCN1CCN(CCC(=O)NCCCCCCCCNc2ccc3c(c2)C(=O)N(C2CCC(=O)NC2=O)C3=O)CC1 (stereo unspecified)	–	–	Activity [2]: Active; Activity [3]: Active
COc1cc2ncnc(Nc3ccc(F)c(Cl)c3)c2cc1OCCCN1CCN(C(=O)CCCCCCCCNC(=O)C[C@H](NC(=O)[C@@H]2C[C@@H](O)CN2C(=O)[C@@H](c2cc(C)no2)C(C)C)c2ccc(-c3scnc3C)cc2)CC1	460	Active	–
Cc1ncsc1-c1ccc(CNC(=O)[C@@H]2C[C@@H](O)CN2C(=O)[C@@H](NC(=O)CCCCCCCCCCn2cc(COc3cc4ncnc(Nc5ccc(F)c(Cl)c5)c4cc3NC(=O)/C=C/CN3CCCCC3)nn2)C(C)(C)C)cc1	–	–	DC50 [4]: 3.6 nM
COc1cc2ncnc(Nc3ccc(F)c(Cl)c3)c2cc1OCCCN1CCN(C(=O)CCCCCCCCCNC(=O)C[C@H](NC(=O)[C@@H]2C[C@@H](O)CN2C(=O)[C@@H](c2cc(C)no2)C(C)C)c2ccc(-c3scnc3C)cc2)CC1	590	Active	–
COc1cc2ncnc(Nc3ccc(F)c(Cl)c3)c2cc1OCCCN1CCN(C(=O)CNC(=O)C[C@H](NC(=O)[C@@H]2C[C@@H](O)CN2C(=O)[C@@H](c2cc(C)no2)C(C)C)c2ccc(-c3scnc3C)cc2)CC1	710	Active	–
COc1cc2ncnc(Nc3ccc(F)c(Cl)c3)c2cc1OCCCN1CCN(C(=O)CCCCCCCNC(=O)C[C@H](NC(=O)[C@@H]2C[C@@H](O)CN2C(=O)[C@@H](c2cc(C)no2)C(C)C)c2ccc(-c3scnc3C)cc2)CC1	610	Active	–
COc1cc2ncnc(Nc3ccc(F)c(Cl)c3)c2cc1OCCCN1CCN(C(=O)CCNC(=O)C[C@H](NC(=O)[C@@H]2C[C@@H](O)CN2C(=O)[C@@H](c2cc(C)no2)C(C)C)c2ccc(-c3scnc3C)cc2)CC1	780	Active	–
COc1cc2ncnc(Nc3ccc(F)c(Cl)c3)c2cc1OCCCN1CCN(C(=O)CCOCCOCCOCCOCCOCCNc2ccc3c(c2)C(=O)N(C2CCC(=O)NC2=O)C3=O)CC1 (stereo unspecified)	870	–	Activity (OVCAR-8): Active; Activity (NCI-H1299): Active
COc1cc2ncnc(Nc3ccc(F)c(Cl)c3)c2cc1OCCCN1CCN(C(=O)CCCCCNC(=O)C[C@H](NC(=O)[C@@H]2C[C@@H](O)CN2C(=O)[C@@H](c2cc(C)no2)C(C)C)c2ccc(-c3scnc3C)cc2)CC1	790	Active	–
COc1cc2ncnc(Nc3ccc(F)c(Cl)c3)c2cc1OCCCN1CCN(C(=O)CCCCNC(=O)C[C@H](NC(=O)[C@@H]2C[C@@H](O)CN2C(=O)[C@@H](c2cc(C)no2)C(C)C)c2ccc(-c3scnc3C)cc2)CC1	770	–	–
COc1cc2ncnc(Nc3ccc(F)c(Cl)c3)c2cc1OCCCN1CCN(C(=O)CCCCCCCCCCNC(=O)C[C@H](NC(=O)[C@@H]2C[C@@H](O)CN2C(=O)[C@@H](c2cc(C)no2)C(C)C)c2ccc(-c3scnc3C)cc2)CC1	250	–	Activity (OVCAR-8): Active; Activity (NCI-H1299): Active
COc1cc2ncnc(Nc3ccc(F)c(Cl)c3)c2cc1OCCCN1CCN(C(=O)CCNC(=O)C[C@H](NC(=O)[C@@H]2C[C@@H](O)CN2C(=O)[C@@H](NC(=O)C2(F)CC2)C(C)(C)C)c2ccc(-c3scnc3C)cc2)CC1	1020	–	–
COc1cc2ncnc(Nc3ccc(F)c(Cl)c3)c2cc1OCCCN1CCN(C(=O)CCOCCOCCOCCOCCOCCNc2ccc3c(c2)C(=O)N(C2CCC(=O)N(C)C2=O)C3=O)CC1 (stereo unspecified)	–	–	Kd [5]: 6.4 nM; Kd [6]: 2.9 nM
COc1cc2ncnc(Nc3ccc(F)c(Cl)c3)c2cc1OCCCN1CCN(C(=O)CCOCCOCCOCCOCCNc2ccc3c(c2)C(=O)N(C2CCC(=O)NC2=O)C3=O)CC1 (stereo unspecified)	930	–	–
COc1cc2ncnc(Nc3ccc(F)c(Cl)c3)c2cc1OCCCN1CCN(C(=O)CCCCCCCCCC(=O)N[C@H](C(=O)N2C[C@H](O)C[C@H]2C(=O)NCc2ccc(-c3scnc3C)cc2)C(C)(C)C)CC1	230	–	Activity (OVCAR-8): Active; Activity (NCI-H1299): Active
Cc1ncsc1-c1ccc(CNC(=O)[C@@H]2C[C@@H](O)CN2C(=O)[C@@H](NC(=O)COCCOCCOc2ccc(-c3ccc4ncnc(Nc5ccc(OCc6cccc(F)c6)c(Cl)c5)c4c3)cc2)C(C)(C)C)cc1	–	–	DC50 [7]: 39 nM
